This passage reports inhibition results from ChEMBL document CHEMBL3132769, “Fragment growing to retain or alter the selectivity of anchored kinase hinge-binding fragments” (Medchemcomm, 2014).

Test [1] concerns the target Protein kinase C delta type (Homo sapiens) (UniProt Q05655). The note with it: 0.1 uM.
Description: Inhibition of human truncated PKC delta expressed in baculovirus assessed as substrate phosphorylation using fluorescence-labelled peptides as substrate at 0.1 uM after 90 mins by microfluidic peptide phosphorylation assay
For test [2], the target named is Casein kinase I isoform delta (Homo sapiens) (UniProt P48730). As to the kind of experiment: Inhibition of human CK1D catalytic domain expressed in Escherichia coli cell assessed as substrate phosphorylation using fluorescence-labelled peptides as substrate at 0.06 uM after 90 mins by microfluidic peptide phosphorylation assay.
The target in test [3] is T1, Inhibitor of nuclear factor kappa-B kinase subunit beta (Homo sapiens) (UniProt O14920).
T1 sequence (whole entry): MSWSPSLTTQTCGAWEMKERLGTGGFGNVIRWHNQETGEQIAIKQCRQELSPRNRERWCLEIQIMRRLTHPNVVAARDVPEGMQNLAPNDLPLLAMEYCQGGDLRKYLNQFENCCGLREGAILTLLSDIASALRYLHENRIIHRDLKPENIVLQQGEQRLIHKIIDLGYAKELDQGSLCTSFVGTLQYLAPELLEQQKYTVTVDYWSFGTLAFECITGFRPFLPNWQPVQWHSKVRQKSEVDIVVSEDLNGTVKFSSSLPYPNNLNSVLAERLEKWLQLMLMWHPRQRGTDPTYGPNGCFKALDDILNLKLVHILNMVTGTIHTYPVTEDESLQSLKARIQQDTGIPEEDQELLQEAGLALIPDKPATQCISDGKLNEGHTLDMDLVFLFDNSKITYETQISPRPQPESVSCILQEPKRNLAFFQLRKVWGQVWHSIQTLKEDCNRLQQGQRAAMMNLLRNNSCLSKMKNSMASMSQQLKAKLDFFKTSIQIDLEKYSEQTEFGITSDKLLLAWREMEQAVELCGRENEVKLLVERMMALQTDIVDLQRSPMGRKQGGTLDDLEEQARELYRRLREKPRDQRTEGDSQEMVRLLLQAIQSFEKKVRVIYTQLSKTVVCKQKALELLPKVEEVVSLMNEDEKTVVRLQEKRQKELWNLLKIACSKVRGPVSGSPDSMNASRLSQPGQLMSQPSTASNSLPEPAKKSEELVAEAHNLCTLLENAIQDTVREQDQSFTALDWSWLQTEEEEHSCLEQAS
As to the kind of experiment: Inhibition of human full length IKK beta expressed in baculovirus assessed as substrate phosphorylation using fluorescence-labelled peptides as substrate at 0.2 uM after 90 mins by microfluidic peptide phosphorylation assay.

Test [4] deals with Protein kinase C delta type (Homo sapiens) (UniProt Q05655). As to the kind of experiment: Inhibition of human truncated PKC delta expressed in baculovirus assessed as substrate phosphorylation using fluorescence-labelled peptides as substrate at 70 uM after 90 mins by microfluidic peptide phosphorylation assay.
Test [5] deals with T2, Serine/threonine-protein kinase D2 (Homo sapiens) (UniProt Q9BZL6).
T2 sequence (whole entry): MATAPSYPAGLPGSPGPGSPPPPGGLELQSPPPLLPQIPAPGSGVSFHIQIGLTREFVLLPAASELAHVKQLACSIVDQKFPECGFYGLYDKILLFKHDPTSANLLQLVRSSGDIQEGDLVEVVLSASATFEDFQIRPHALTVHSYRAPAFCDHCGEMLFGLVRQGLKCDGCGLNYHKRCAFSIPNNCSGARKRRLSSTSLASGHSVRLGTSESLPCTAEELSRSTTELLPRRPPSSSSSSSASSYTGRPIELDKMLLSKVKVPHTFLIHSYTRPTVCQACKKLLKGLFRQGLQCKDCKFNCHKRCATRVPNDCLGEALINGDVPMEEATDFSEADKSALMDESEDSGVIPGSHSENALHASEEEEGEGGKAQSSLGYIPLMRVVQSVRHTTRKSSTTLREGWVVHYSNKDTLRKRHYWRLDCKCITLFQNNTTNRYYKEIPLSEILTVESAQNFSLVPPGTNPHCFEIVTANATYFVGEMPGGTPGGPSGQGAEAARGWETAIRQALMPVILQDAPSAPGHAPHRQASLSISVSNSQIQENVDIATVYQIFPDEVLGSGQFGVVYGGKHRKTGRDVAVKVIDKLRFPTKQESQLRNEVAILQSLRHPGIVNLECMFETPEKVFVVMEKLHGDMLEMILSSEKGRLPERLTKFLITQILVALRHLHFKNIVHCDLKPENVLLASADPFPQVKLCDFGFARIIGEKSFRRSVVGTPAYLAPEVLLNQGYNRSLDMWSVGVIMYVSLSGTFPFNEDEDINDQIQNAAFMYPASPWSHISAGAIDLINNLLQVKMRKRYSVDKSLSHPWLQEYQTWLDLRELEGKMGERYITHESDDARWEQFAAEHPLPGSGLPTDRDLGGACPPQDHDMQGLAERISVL
As to the kind of experiment: Inhibition of human full length PKD2 expressed in baculovirus assessed as substrate phosphorylation using fluorescence-labelled peptides as substrate at 2 uM after 90 mins by microfluidic peptide phosphorylation assay.

The target in test [6] is Vascular endothelial growth factor receptor 2 (Homo sapiens) (UniProt P35968). As to the kind of experiment: Inhibition of human KDR cytoplasmic domain expressed in baculovirus assessed as substrate phosphorylation using fluorescence-labelled peptides as substrate at 95 uM after 90 mins by microfluidic peptide phosphorylation assay.
The target of test [7] is T3, Aurora kinase A (Homo sapiens) (UniProt O14965).
T3 sequence (whole entry): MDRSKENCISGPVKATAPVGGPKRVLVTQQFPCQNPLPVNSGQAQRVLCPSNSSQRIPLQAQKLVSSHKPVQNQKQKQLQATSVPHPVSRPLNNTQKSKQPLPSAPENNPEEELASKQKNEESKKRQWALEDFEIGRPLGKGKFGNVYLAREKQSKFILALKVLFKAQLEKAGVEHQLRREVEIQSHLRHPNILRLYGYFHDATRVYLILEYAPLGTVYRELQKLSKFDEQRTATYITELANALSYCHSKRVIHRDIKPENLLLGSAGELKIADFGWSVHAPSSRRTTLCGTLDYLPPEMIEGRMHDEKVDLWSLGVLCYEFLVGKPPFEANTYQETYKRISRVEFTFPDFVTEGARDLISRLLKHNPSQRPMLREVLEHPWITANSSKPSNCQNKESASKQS
As to the kind of experiment: Inhibition of human full length AurA expressed in baculovirus assessed as substrate phosphorylation using fluorescence-labelled peptides as substrate at 1000 uM after 90 mins by microfluidic peptide phosphorylation assay.

Test [8] concerns the target T4, Mitogen-activated protein kinase 12 (Homo sapiens) (UniProt P53778).
T4 sequence (whole entry): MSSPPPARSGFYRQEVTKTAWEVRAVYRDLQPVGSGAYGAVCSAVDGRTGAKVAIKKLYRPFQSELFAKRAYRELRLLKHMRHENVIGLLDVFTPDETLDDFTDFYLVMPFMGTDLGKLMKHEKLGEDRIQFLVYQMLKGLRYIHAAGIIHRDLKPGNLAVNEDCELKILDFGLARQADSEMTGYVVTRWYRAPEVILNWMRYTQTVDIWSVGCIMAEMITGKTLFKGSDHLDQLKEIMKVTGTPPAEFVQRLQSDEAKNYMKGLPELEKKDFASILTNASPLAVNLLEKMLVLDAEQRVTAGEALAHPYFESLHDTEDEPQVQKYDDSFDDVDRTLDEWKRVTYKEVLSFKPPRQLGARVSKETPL
As to the kind of experiment: Inhibition of human full length p38 gamma expressed in Escherichia coli cell assessed as substrate phosphorylation using fluorescence-labelled peptides as substrate at […] after 90 mins by microfluidic peptide phosphorylation assay.

Structures are written as SMILES.

Chain of Protein kinase C delta type (Homo sapiens) (Q05655 whole entry, looked up, the tested form may be a part, canonical isoform): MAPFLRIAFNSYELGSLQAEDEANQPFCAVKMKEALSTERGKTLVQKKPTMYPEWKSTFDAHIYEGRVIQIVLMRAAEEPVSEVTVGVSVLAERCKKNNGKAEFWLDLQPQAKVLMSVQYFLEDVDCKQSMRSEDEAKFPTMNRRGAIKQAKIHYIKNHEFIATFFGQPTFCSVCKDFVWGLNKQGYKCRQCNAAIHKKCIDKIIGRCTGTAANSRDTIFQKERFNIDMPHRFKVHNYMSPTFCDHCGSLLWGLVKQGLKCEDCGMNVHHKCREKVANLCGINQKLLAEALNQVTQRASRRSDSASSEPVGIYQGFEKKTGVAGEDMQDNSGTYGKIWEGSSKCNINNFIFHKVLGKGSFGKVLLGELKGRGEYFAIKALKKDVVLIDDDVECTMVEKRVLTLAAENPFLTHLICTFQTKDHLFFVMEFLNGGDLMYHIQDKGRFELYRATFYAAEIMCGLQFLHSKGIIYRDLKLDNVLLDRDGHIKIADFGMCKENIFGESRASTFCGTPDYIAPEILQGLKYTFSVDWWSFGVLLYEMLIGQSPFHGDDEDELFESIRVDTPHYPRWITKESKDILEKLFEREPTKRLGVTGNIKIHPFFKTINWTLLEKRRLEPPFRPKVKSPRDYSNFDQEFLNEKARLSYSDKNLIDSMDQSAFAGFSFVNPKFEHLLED
Chain of Casein kinase I isoform delta (Homo sapiens) (P48730 whole entry, looked up, the tested form may be a part, canonical isoform): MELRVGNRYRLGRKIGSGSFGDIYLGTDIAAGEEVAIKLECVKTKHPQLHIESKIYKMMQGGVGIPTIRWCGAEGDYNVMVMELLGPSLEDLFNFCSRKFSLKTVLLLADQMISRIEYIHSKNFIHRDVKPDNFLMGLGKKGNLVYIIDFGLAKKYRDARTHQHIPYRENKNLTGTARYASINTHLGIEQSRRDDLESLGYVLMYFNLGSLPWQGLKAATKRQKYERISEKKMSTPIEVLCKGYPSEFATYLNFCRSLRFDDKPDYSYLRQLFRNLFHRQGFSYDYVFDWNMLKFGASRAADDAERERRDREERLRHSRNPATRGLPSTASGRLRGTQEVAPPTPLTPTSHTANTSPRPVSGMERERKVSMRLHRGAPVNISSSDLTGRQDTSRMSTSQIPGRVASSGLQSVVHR
Chain of Vascular endothelial growth factor receptor 2 (Homo sapiens) (P35968 whole entry, the tested form may be a part): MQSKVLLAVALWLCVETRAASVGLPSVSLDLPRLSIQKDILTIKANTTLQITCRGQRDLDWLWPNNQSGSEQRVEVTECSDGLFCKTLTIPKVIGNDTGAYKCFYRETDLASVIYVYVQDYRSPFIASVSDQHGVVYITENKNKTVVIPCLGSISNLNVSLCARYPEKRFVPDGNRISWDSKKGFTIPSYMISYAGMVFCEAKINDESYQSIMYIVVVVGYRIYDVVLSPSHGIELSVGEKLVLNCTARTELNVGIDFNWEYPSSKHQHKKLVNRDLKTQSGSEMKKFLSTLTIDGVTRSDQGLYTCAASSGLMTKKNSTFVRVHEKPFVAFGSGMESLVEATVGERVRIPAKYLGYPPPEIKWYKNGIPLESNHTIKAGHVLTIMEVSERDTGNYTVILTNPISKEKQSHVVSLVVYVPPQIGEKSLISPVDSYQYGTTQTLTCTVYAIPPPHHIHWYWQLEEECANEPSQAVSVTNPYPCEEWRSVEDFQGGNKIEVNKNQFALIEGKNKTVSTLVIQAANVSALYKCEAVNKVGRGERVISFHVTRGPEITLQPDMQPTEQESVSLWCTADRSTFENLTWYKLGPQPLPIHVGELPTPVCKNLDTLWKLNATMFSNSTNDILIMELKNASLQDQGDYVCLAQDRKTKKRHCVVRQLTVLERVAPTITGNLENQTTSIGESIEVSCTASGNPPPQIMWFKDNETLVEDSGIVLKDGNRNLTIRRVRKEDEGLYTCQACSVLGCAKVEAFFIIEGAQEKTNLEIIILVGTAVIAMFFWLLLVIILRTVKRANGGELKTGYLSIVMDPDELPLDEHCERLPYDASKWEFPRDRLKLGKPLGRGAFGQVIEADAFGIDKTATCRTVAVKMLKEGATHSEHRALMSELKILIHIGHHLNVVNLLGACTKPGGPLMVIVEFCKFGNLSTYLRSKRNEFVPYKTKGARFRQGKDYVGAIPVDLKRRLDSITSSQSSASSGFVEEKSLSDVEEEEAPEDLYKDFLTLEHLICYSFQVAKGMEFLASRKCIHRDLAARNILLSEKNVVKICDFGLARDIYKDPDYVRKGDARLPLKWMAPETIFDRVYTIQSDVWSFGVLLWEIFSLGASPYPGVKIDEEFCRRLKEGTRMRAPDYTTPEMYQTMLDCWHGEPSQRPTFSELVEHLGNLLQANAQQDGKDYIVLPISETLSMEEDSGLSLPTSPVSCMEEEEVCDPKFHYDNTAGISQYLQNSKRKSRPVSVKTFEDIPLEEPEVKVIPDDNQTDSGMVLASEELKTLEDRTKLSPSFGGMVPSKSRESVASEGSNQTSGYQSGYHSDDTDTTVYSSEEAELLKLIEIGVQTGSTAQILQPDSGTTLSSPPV

A word on the inhibition: it is how much of the control response was suppressed. On to `C[C@H](CN(C)C)Oc1nc(Nc2cc3cccc(Cl)c3cn2)cnc1C#N`, for which the inhibition in test [1] worked out at 0%.

For the compound `NC1(Cc2ccc(Cl)cc2)CCN(c2ncnc3[nH]ccc23)CC1`, the inhibition in test [2] turned out to be 0.5%.

As for `Clc1ccc(C2(c3ccc(-c4ncnc5[nH]cnc45)cc3)CCNCC2)cc1`, the inhibition in test [3] is 81%. As for `CNCc1ccc(-c2ncnc3[nH]cnc23)cc1`, in test [4], the inhibition was 60%. On to `NC1CCN(c2ncnc3[nH]ccc23)CC1`, for which, in test [5], the inhibition was found to be 6.5%.

For `NCCc1ccc(-c2ncnc3[nH]cnc23)cc1`, in test [6], the inhibition stood at 72.5%. Take `c1cnc2[nH]ccc2c1`: in test [7], the inhibition stood at 88%. `COC(=O)c1cnc(Nc2cnc(C#N)cn2)cc1NCC1CCNCC1`: in test [8], the inhibition was 1.5%.
